For 10 compounds, IC50 results are on record in patent publication US11952364B2, “TRK inhibitors useful as anticancer drugs” (TYLIGAND BIOSCIENCE (SHANGHAI) LIMITED, priority 2018, dated 2024).

The subject of one test is Ba/F3 ETV6-NTRK3-G696C cells. The experiment in a line: Proliferation of Ba/F3 ETV6-NTRK3-G696C cells (CellTiter-Glo). It is filed as cell-based, mouse. The following applies: Mus musculus, BaF3, 72 h, Table 7; 72 hours; read-out: Ba/F3 ETV6-NTRK3-G696C, IC50. The source says: Ba/F3 ETV6-NTRK3-G696C is a stable transgenic cell line constructed by KYinno Biotechnology Co., Ltd. on mouse primary B cell Ba/F3 wherein NTRK3 is highly expressed with a mutation of G at position […] to C and fused with ETV6 to form ETV6-NTRK3. • [Test method]: Promega's CellTiter-Glo® Luminescent Cell Viability Assay kit was used to evaluate the inhibitory activity of the compounds on the proliferation of Ba/F3 ETV6-NTRK3-G696C cells. • [Instrument]: Spectramax M3 multifunctional microplate reader from Molecular Devices. • [Test materials]: Ba/F3 ETV6-NTRK3-G696C cell line (constructed by KYinno Biotechnology Co., Ltd. (Beijing)), 96-well transparent flat-bottomed black-walled cell culture plate (Corning, cat #3603), RPMI-1640 media (GE, product number #SH30027.01), fetal bovine serum FBS (Thermo Fisher, cat #10099-141), CellTiter-Glo® Luminescent Cell Viability Assay kit (Promega, cat #G7572), PBS (Solarbio, cat #P1020), DMSO (Sigma, cat #D2650). • [Experimental procedure]: When resuscitating Ba/F3 ETV6-NTRK3-G696C cells, • the freezing tube was quickly shaken in a 37° C. water bath to melt within 1 minute. The thawed cell suspension was mixed uniformly with RPMI1640 medium containing 10% FBS, centrifuged at 1000 rpm for 5 minutes, and the supernatant discarded. 5 mL of complete medium (RPMI1640 medium with 10% FBS) was taken to resuspend the cell pellets, charged into a cell culture flask with a bottom area of 25 cm^2, and incubated in a cell incubator at 37° C., 95% humidity and 5% CO2. Cells were allowed to passage when the number of cells reached about 10^6 cells/mL. For cell passage, the old cell suspension was directly pipetted evenly, 1/5 of the cell suspension was kept, 4 mL of new complete medium was added, after pipetting evenly, the cell flask was placed in the cell incubator for further culturing. Cell plating was performed when the number of cells reached about 10^6 cells/mL again. For cell plating, 1/5 of the cell suspension was kept for further culturing as in the cell passage method, and the remaining 4/5 of the cell suspension was placed in a 15 mL centrifuge tube, detected for cell viability by Trypan blue exclusion method to ensure that cell viability was above 90%. A cell suspension with a density of 5.56×10^4 viable cells/mL was prepared with complete medium, and 90 μL of such cell suspension was added to a 96-well cell culture plate to obtain the cell density of 5000 viable cells/mL in the cell culture plate. A control group containing no cells, no compound and only complete medium (i.e. culture medium control) and a control group containing no compound but containing cells (i.e. cell control) were set. The cell plate was placed in a cell incubator overnight. The 10 mM compound stock solution in DMSO was first serially diluted with DMSO at a dilution factor of 3.16 times, to obtain 9 concentrations, and the 10th concentration was set as DMSO control without compound. Then, PBS was used to dilute the DMSO solutions of compounds of different concentrations, at a dilution factor of 100 times, so that the DMSO concentration in the compound solution of each concentration was 1%. Finally, 10 μL of each of the above solutions was added to the corresponding cell culture plate, so that the initial compound concentration was 10 μM, with the remaining concentrations being successively diluted at a dilution factor of 3.16 times, and the DMSO content in the cell culture plate was 0.1%. The cell plate was placed in a cell incubator and cultured for 72 hours. For endpoint detection, the CellTiter-Glo reagent was melted, and the cell plate was moved to room temperature to equilibrate for 30 minutes, added with 100 μL of CellTiter-Glo for each well, and shaken on an orbital shaker for 5 minutes to fully lyse the cells. […]
(Cellular ATP, detected with luciferase, serves as a proxy for viable cell number.)
For the compound `Cn1ncc2cc(Oc3ccc(NC(=O)c4ccc(C(F)(F)F)n(-c5ccc(F)cc5)c4=O)cc3F)c(-c3cn[nH]c3)cc21` [Example 1, N-(3-fluoro-4-(1-methyl-6-(1H-pyrazol-4-yl)-1H-indazol-5-yloxy)phenyl)-1-(4-fluorophenyl)-6-trifluoromethyl-2-oxo-1,2-dihydmpyridine-3-carboxamide monomethanesulfonate], the IC50 was found to be 33 nM. The same measure, in the same setting: the result for `Cn1ncc2cc(Oc3ccc(NC(=O)c4ccc(C5CC5)n(-c5ccc(F)cc5)c4=O)cc3F)c(-c3cn[nH]c3)cc21` [Example 2, N-(3-fluoro-4-(1-methyl-6-(1H-pyrazol-4-yl)-1H-indazol-5-yloxy)phenyl)-1-(4-fluorophenyl)-6-cyclopropyl-2-oxo-1,2-dihydmpyridine-3-carboxamide] reads 20 nM; that for `CCn1ncc2cc(Oc3ccc(NC(=O)c4ccc(C)n(-c5ccc(F)cc5)c4=O)cc3F)c(-c3cn[nH]c3)cc21` [Example 3, N-(3-fluoro-4-(1-ethyl-6-(1H-pyrazol-4-yl)-1H-indazol-5-yloxy)phenyl)-1-(4-fluorophenyl)-6-methyl-2-oxo-1,2-dihydmpyridine-3-carboxamide], 18 nM. Same read-out and setting: the result for `Cc1ccc(C(=O)Nc2ccc(Oc3cc4cnn(C(C)C)c4cc3-c3cn[nH]c3)c(F)c2)c(=O)n1-c1ccc(F)cc1` [Example 4, N-(3-fluoro-4-(1-isopropyl-6-(1H-pyrazol-4-yl)-1H-indazol-5-yloxy)phenyl)-1-(4-fluorophenyl)-6-methyl-2-oxo-1,2-dihydmpyridine-3-carboxamide] reads 34 nM.

As to `CCc1ccc(C(=O)Nc2ccc(Oc3cc4cnn(C)c4cc3-c3cn[nH]c3)c(F)c2)c(=O)n1-c1ccc(F)cc1` [Example 5, N-(3-fluoro-4-(1-methyl-6-(1H-pyrazol-4-yl)-1H-indazol-5-yloxy)phenyl)-1-(4-fluorophenyl)-6-ethyl-2-oxo-1,2-dihydropyridine-3-carboxamide], the IC50 stood at 6.8 nM. For the compound `CC(C)c1ccc(C(=O)Nc2ccc(Oc3cc4cnn(C)c4cc3-c3cn[nH]c3)c(F)c2)c(=O)n1-c1ccc(F)cc1` [Example 6, N-(3-fluoro-4-(1-methyl-6-(1H-pyrazol-4-yl)-1H-indazol-5-yloxy)phenyl)-1-(4-fluorophenyl)-6-isopropyl-2-oxo-1,2-dihydropyridine-3-carboxamide], the IC50 was found to be 16 nM.

The same test, now with this note: Mus musculus, BaF3, Table 7-1; separate test; read-out: Ba/F3 ETV6-NTRK3-G696C, IC50.
Take `COc1ccc(C(=O)Nc2ccc(Oc3cc4cnn(C)c4cc3-c3cn[nH]c3)c(F)c2)c(=O)n1-c1ccc(F)cc1` [Example 12, N-(3-fluoro-4-(1-methyl-6-(1H-pyrazol-4-yl)-1H-indazol-5-yloxy)phenyl)-1-(4-fluorophenyl)-6-methoxy-2-oxo-1,2-dihydropyridine-3-carboxamide]: the IC50 came to 3 nM.

The test is the same for the next values; noted with them: Mus musculus, BaF3, Table 7-2; separate test; read-out: Ba/F3 ETV6-NTRK3-G696C, IC50.
For `CSc1ccc(C(=O)Nc2ccc(Oc3cc4cnn(C)c4cc3-c3cn[nH]c3)c(F)c2)c(=O)n1-c1ccc(F)cc1` [Example 11, N-(3-fluoro-4-(1-methyl-6-(1H-pyrazol-4-yl)-1H-indazol-5-yloxy)phenyl)-1-(4-fluorophenyl)-6-methylthio-2-oxo-1,2-dihydropyidine-3-carboxamide], the IC50 is 1.8 nM. Turning to `CCOc1ccc(C(=O)Nc2ccc(Oc3cc4cnn(C)c4cc3-c3cn[nH]c3)c(F)c2)c(=O)n1-c1ccc(F)cc1` [Example 14, N-(3-fluoro-4-(1-methyl-6-(1H-pyrazol-4-yl)-1H-indazol-5-yloxy)phenyl)-1-(4-fluorophenyl)-6-ethoxy-2-oxo-12-dihydropyridine-3-carboxamide], the IC50 came to 1.6 nM. As for `Cn1ncc2cc(Oc3ccc(NC(=O)c4ccc(OC5CC5)n(-c5ccc(F)cc5)c4=O)cc3F)c(-c3cn[nH]c3)cc21` [Example 15, N-(3-fluoro-4-(1-methyl-6-(1H-pyrazol-4-yl)-1H-indazol-5-yloxy)phenyl)-1-(4-fluorophenyl)-6-cyclopropoxy-2-oxo-1,2-dihydropyridine-3-carboxamide], the IC50 amounted to 1.9 nM.
